From article PMC10451623 (Antioxidants, 2023) come the findings set out here.

Assay [1] has as its target T1, human PPARα (Homo sapiens, UniProt Q07869).
T1 construct: expressed in transfected cells; host or cells: COS-7
T1 sequence (Q07869 239-466 limits assumed): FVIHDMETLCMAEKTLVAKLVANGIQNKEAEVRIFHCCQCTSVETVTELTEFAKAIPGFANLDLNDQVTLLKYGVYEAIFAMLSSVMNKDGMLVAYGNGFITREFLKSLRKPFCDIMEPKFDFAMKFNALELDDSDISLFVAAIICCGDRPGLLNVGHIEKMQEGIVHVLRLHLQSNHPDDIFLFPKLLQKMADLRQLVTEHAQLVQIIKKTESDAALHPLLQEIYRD
The experiment in a line: Transactivation assay (GAL4–hPPARα-LBD chimera, luciferase reporter, COS-7 cells). Format: cell-based. To be noted: for Emax: 100% = 1 µM GW7647, read-out: Efficacy, PPARα transactivation (% of the maximal response); for EC50: GAL4–hPPARα-LBD. As to the method:
(§1) The pSG5-GAL–hPPARα/δ/γ plasmids express fusion proteins comprising the yeast transcription factor GAL4 DNA-binding domain and each of the human PPARα/δ/γ-LBDs. The MH100(UAS)×4-tk-Luc plasmid contains four copies of the MH100 GAL4 binding site and the Firefly luciferase gene. The cells were transfected with those plasmids and were treated with various PPAR ligands, and both Firefly and Renilla luciferase activities were measured using the Dual-Glo Luciferase Assay System (Promega, Madison, WI, USA) as described previously. […] GW1929 was purchased from Sigma-Aldrich (St. Louis, MO, USA).
(§2) For the undertaking of the comparison of the potency, efficacy, and selectivity of the five PPAR ligands (Figure 1A) against the PPAR subtypes, we evaluated their PPARα/δ/γ activation using three different methods: a cell-based transactivation assay, a coactivator recruitment assay, and a thermal stability assay, as we previously performed on three fibrates (namely, bezafibrate, fenofibric acid, and pemafibrate). The cell-based transactivation assay utilizing the Gal4–PPAR-LBD system is the most widely used method for the determination of PPAR activation by certain ligands, although their responses depend on the used cell types in which several coactivators with altered functions are differentially expressed.
(§3) Figure 1 LBD-mediated human PPARα/δ/γ transactivation by PPAR ligands. (A) Chemical structures of the five PPAR ligands used in this study. […] Data are presented as the mean ± standard error (SE) of three independent experiments with duplicate samples.
On the technique in general: Reporter assays use an easily measured gene product as a stand-in for the process of interest.

For assay [2], the target named is T2, PPARγ-LBD (Homo sapiens, UniProt P37231).
T2 sequence (P37231 203-477 isoform P37231-2): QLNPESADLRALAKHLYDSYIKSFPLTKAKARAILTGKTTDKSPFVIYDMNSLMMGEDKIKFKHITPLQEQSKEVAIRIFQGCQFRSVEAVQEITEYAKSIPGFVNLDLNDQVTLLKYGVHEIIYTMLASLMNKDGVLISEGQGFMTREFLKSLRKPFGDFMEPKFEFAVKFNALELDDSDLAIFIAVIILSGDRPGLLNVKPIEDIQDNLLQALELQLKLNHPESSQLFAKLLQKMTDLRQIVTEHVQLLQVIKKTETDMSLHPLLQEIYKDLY
In words: TR-FRET SRC1 coactivator recruitment assay. Set-up: PPARγ-LBD (amino acids 203–477 in isoform 1); made in house; host or cells: Rosetta (DE3) pLysS (E. coli). To be noted: SRC1 peptide, read-out: EC50, SRC1 recruitment to PPARγ-LBD. Format: biochemical. The procedure:
Subsequently, 5 µL of 4 nM Eu-W1024-labeled anti-6×His antibody/80 nM ULight-Streptavidin (PerkinElmer) was added to each well, and the microplate was incubated in the dark for 2 h, at room temperature. […] The nonlinear fitting and the calculation of the EC50 were performed using the Prism 9 software (GraphPad, San Diego, CA, USA).
The ligand-bound activated forms of PPARs are stabilized by associations with specific coactivators, thereby enabling the regulation of specific gene expression.
Figure 2 TR-FRET-based LBD-mediated human PPARα/δ/γ coactivator recruitment assay. […] Data are presented as the mean ± SE of three or four independent experiments with duplicate samples, and the calculated EC50 values are shown.

Assay [3] deals with T3, human PPARγ (Homo sapiens, UniProt P37231).
T3 construct: expressed in transfected cells; host or cells: COS-7
T3 sequence (P37231 238-503 limits assumed): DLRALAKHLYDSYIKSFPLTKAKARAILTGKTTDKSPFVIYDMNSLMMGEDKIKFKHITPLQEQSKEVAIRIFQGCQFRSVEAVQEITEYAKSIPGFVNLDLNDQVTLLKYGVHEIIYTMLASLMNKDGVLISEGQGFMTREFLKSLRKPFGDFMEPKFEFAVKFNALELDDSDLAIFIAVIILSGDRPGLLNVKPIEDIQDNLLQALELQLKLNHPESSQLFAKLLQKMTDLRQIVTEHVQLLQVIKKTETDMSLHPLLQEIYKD
The experiment in a line: Transactivation assay (GAL4–hPPARγ-LBD chimera, luciferase reporter, COS-7 cells). To be noted: for Emax: 100% = 1 µM GW1929, read-out: Efficacy, PPARγ transactivation (% of the maximal response); for EC50: GAL4–hPPARγ-LBD. Format: cell-based. The procedure: as §1, §2, §3

Turning to `CSc1ccc(C(=O)/C=C/c2cc(C)c(OC(C)(C)C(=O)O)c(C)c2)cc1` [elafibranor], the Emax in assay [1] and in assay [3] was 38.5% throughout. Further, the values for the EC50 in assay [1], in assay [2] and in assay [3] were 388 nM, 11800 nM and 2120 nM, respectively.
`O=C(O)CCCc1cc2cc(Cl)ccc2n1S(=O)(=O)c1ccc2ncsc2c1` [lanifibranor]: the values for the Emax in assay [1] and in assay [3] were 13.3% and 24.9%, respectively. The EC50 (usually the concentration needed to bring the measured effect to its halfway point) came to 4660 nM in assay [1], 7570 nM in assay [2] and 572 nM in assay [3].
For `CCO[C@@H](Cc1ccc(OCCn2c(C)ccc2-c2ccc(SC)cc2)cc1)C(=O)O` [saroglitazar] the same measures were 56.4%, 89.4%, 190 nM, 3440 nM and 311 nM.
For `CCO[C@H](COc1ccc(C(F)(F)F)cc1)CSc1ccc(OCC(=O)O)c(C)c1` [seladelpar] the same measures were 41%, 58.5%, 1640 nM, above 300000 nM and 3530 nM.
